# Source: publication PMC9953335 (2022)
# Key:
# [1] = test system: cKIT1 (unlabelled) (DNA, G4) GGGAGGGCGCTGGGAGGAGGG; test: CD titration; settings: K+ (50 mM KCl); 10 mM Tris-HCl, pH 7.4, 25 °C; 1-10 equiv compound
# [2] = test system: hTelo (unlabelled) (DNA, G4) GGGTTAGGGTTAGGGTTAGGG; test: CD titration; settings: K+ (50 mM KCl); 10 mM Tris-HCl, pH 7.4, 25 °C; 1-10 equiv compound
binding [1],binding [2],SMILES
yes,yes,CN1[C]N(CCCN2[C]N(C)c3ccccc32)c2ccccc21.CN1[C]N(CCCN2[C]N(C)c3ccccc32)c2ccccc21.[Au+].[Au+]
yes,yes,CN1[C]N(CCCN2[C]N(C)c3c2c(=O)n(C)c(=O)n3C)c2c1n(C)c(=O)n(C)c2=O.CN1[C]N(CCCN2[C]N(C)c3c2c(=O)n(C)c(=O)n3C)c2c1n(C)c(=O)n(C)c2=O.[Au+].[Au+]
